Results from US20250136606A1, “MODULATORS OF TRPML, THEIR COMPOSITIONS AND METHODS OF USE” (Caraway Therapeutics, Inc., priority 2021, published 2025).
Where two headings read alike, the source gives them in different places.

Assays:
Format in all cases: cell-based
TRPML1 = TRPML1 (Homo sapiens, UniProt Q9GZU1); test: Fluorescent TRPML1 assay (Fluo4-AM calcium fluorescence in doxycycline-induced HEK-293 Trex cells)
How it was run: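 HEK-293 Trex cells stably carrying human TRPML1 (surface-trafficking mutant) were induced overnight with 0.5 ug/mL doxycycline, loaded with 1 micromolar Fluo4-AM, and suspended in Ringer's with 10 mM calcium. Compounds at 20 micromolar to 6 nanomolar final, half-log steps, triplicate; fluorescence 480/540 nm gave percent activity versus controls and EC50 by non-linear regression.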

TRPML3 = target: T1, TRPML3 (Homo sapiens, UniProt Q8TDD5); test: Fluorescent TRPML3 assay (performed as for TRPML1, substituting the TRPML3 subtype)
T1 construct: expressed in transfected cells
T1 sequence (Q8TDD5 1-553): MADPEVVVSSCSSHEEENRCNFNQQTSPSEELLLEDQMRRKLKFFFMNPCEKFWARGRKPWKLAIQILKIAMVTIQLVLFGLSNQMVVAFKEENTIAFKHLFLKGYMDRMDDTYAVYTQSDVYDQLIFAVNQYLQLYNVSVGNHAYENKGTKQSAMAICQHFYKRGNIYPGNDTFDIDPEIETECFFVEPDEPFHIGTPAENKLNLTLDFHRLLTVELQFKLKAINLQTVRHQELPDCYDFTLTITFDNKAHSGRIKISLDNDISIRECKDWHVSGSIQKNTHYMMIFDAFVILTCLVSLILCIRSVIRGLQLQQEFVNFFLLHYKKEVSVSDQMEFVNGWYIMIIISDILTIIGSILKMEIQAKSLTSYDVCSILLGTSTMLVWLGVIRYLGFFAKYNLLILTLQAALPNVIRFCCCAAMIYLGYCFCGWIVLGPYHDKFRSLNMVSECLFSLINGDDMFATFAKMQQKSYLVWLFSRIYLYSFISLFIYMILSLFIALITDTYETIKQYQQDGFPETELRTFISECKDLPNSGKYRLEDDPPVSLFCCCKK
How it was run: (§1)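 Calcium-influx readout: Fluo4 fluorescence at 480/540 nm, normalised to positive and negative controls per plate, EC50 fitted by non-linear regression. Cells were HEK-293 Trex stable lines, channel expression induced overnight with 0.5 ug/mL doxycycline; tested at 20 micromolar down to 6 nanomolar final, half-log steps, triplicate.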

TRPML2 = target: T2, TRPML2 (Homo sapiens, UniProt Q8IZK6); test: Fluorescent TRPML2 assay (performed as for TRPML1, substituting the TRPML2 subtype)
T2 construct: expressed in transfected cells
T2 sequence (Q8IZK6 1-566): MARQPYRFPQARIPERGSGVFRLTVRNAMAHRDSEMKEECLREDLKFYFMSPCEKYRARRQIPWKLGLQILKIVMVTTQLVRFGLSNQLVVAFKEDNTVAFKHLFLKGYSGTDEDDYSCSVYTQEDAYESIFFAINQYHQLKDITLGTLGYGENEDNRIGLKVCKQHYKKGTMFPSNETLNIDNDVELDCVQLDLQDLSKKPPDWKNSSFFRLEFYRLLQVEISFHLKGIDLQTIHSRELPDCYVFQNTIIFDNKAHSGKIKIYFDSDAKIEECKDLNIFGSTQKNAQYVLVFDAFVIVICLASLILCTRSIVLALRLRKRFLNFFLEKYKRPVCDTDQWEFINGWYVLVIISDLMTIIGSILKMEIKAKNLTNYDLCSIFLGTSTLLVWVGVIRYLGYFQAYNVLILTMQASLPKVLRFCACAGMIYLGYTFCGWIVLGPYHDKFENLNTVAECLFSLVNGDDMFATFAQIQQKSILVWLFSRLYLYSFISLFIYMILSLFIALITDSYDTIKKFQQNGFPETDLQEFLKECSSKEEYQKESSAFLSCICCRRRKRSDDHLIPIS
How it was run: as §1

Chain of TRPML1 (Q9GZU1 whole entry L15A/L16A/L577A/L578A, form open): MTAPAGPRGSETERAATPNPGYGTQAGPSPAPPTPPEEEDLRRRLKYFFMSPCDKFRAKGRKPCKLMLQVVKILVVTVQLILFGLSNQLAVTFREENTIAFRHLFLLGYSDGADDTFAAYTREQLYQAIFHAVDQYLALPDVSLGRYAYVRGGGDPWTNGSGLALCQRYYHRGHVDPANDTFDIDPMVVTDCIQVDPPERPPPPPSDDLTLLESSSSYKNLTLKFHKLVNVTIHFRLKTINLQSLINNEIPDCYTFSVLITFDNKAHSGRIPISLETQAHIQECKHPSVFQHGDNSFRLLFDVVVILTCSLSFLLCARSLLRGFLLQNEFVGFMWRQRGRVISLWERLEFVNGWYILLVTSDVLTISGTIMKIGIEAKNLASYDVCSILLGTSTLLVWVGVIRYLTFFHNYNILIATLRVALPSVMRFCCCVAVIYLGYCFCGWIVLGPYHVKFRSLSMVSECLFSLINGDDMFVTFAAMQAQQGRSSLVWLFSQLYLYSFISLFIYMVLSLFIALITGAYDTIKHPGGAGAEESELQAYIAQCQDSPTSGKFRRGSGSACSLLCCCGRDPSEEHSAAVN

Row | Structure (SMILES) | EC50 (TRPML1; fluorescent calcium assay) [µM] | EC50 (TRPML3; fluorescent calcium assay) [µM] | EC50 (TRPML2; fluorescent calcium assay) [µM] | EC50 (TRPML1) [µM] | EC50 (TRPML3) [µM] | EC50 (TRPML2) [µM]
1 | C[C@H]1CN(C(=O)OC(C)(C)C)CCN1c1ncnc2c1c(C(F)(F)F)cn2-c1cc(C#N)ccn1 [Compound 481, tert-butyl (S)-4-(7-(4-cyanopyridin-2-yl)-5-(trifluoromethyl)-7H-pyrrolo[2,3-d]pyrimidin-4-yl)-3-methylpiperazine-1-carboxylate] | < 0.1 | < 0.1 | < 0.1 | – | – | –
2 | CC(C)(C)OC(=O)N1CCCN(c2ncnc3c2c(C2CC2)cn3-c2cc(C#N)ccn2)CCC1 [Compound 482, tert-butyl 5-(7-(4-cyanopyridin-2-yl)-5-cyclopropyl-7H-pyrrolo[2,3-d]pyrimidin-4-yl)-1,5-diazocane-1-carboxylate] | < 0.1 | < 0.1 | 0.1 to 0.5 | – | – | –
3 | C[C@@H]1CN(c2ncnc3c2c(C(F)(F)F)cn3-c2cc(C#N)ccn2)[C@@H](C)CN1C(=O)OC(C)(C)C [Compound 483, tert-butyl (2R,5S)-4-(7-(4-cyanopyridin-2-yl)-5-(trifluoromethyl)-7H-pyrrolo[2,3-d]pyrimidin-4-yl)-2,5-dimethylpiperazine-1-carboxylate] | < 0.1 | < 0.1 | < 0.1 | – | – | –
4 | C[C@H]1CN(C(=O)OC(C)(C)C)CCN1c1ncnc2c1c(C(C)(C)O)cn2-c1cc(C#N)ccn1 [Compound 484, tert-butyl (S)-4-(7-(4-cyanopyridin-2-yl)-5-(2-hydroxypropan-2-yl)-7H-pyrrolo[2,3-d]pyrimidin-4-yl)-3-methylpiperazine-1-carboxylate] | < 0.1 | < 0.1 | 0.1 to 0.5 | – | – | –
5 | C[C@H]1CN(C(=O)OC(C)(C)C)CCN1c1ncnc2c1c(N1CCCC1)cn2-c1ncc(C#N)s1 [Compound 485, tert-butyl (S)-4-(7-(5-cyanothiazol-2-yl)-5-(pyrrolidin-1-yl)-7H-pyrrolo[2,3-d]pyrimidin-4-yl)-3-methylpiperazine-1-carboxylate] | < 0.1 | 0.5 to 2 | 0.5 to 2 | – | – | –
6 | CCN(CCOC)c1cn(-c2cc(C#N)ccn2)c2ncnc(N3CCN(C(=O)OC(C)(C)C)C[C@@H]3C)c12 [Compound 486, tert-butyl (S)-4-(7-(4-cyanopyridin-2-yl)-5-(ethyl(2-methoxyethyl)amino)-7H-pyrrolo[2,3-d]pyrimidin-4-yl)-3-methylpiperazine-1-carboxylate] | < 0.1 | < 0.1 | 0.1 to 0.5 | – | – | –
7 | CCCOc1cn(-c2cc(C#N)ccn2)c2ncnc(N3CCN(C(=O)OC(C)(C)C)C[C@@H]3C)c12 [Compound 487, tert-butyl (S)-4-(7-(4-cyanopyridin-2-yl)-5-propoxy-7H-pyrrolo[2,3-d]pyrimidin-4-yl)-3-methylpiperazine-1-carboxylate] | < 0.1 | < 0.1 | < 0.1 | – | – | –
8 | C[C@@H]1CN(c2ncnc3c2c(N2CCC2)cn3-c2cc(C#N)ccn2)[C@@H](C)CN1C(=O)OC(C)(C)C [Compound 489, tert-butyl (2R,5S)-4-(5-(azetidin-1-yl)-7-(4-cyanopyridin-2-yl)-7H-pyrrolo[2,3-d]pyrimidin-4-yl)-2,5-dimethylpiperazine-1-carboxylate] | < 0.1 | < 0.1 | < 0.1 | – | – | –
9 | C[C@@H]1CN(c2ncnc3c2c(N2CCC2)cn3-c2cccc(Cl)c2)[C@@H](C)CN1C(=O)OC(C)(C)C [Compound 490, tert-butyl (2R,5S)-4-(5-(azetidin-1-yl)-7-(3-chlorophenyl)-7H-pyrrolo[2,3-d]pyrimidin-4-yl)-2,5-dimethylpiperazine-1-carboxylate] | < 0.1 | < 0.1 | < 0.1 | – | – | –
10 | C[C@@H]1CN(c2ncnc3c2c(C(F)(F)F)cn3-c2cccc(Cl)c2)[C@@H](C)CN1C(=O)OC(C)(C)C [Compound 491, tert-Butyl (2R,5S)-4-(7-(3-chlorophenyl)-5-(trifluoromethyl)-7H-pyrrolo[2,3-d]pyrimidin-4-yl)-2,5-dimethylpiperazine-1-carboxylate] | < 0.1 | < 0.1 | 0.1 to 0.5 | – | – | –
11 | C[C@@H]1CN(c2ncnc3c2c(C(F)(F)F)cn3-c2cc(F)cc(F)c2)[C@@H](C)CN1C(=O)OC(C)(C)C [Compound 492] | < 0.1 | < 0.1 | 0.1 to 0.5 | – | – | –
12 | C[C@H]1CN(C(=O)OC(C)(C)C)CCN1c1ncnc2c1c(N1CCC1)cn2-c1cccc(Cl)c1 [Compound 493, tert-butyl (S)-4-(5-(azetidin-1-yl)-7-(3-chlorophenyl)-7H-pyrrolo[2,3-d]pyrimidin-4-yl)-3-methylpiperazine-1-carboxylate] | < 0.1 | < 0.1 | < 0.1 | – | – | –
13 | C[C@H]1CN(C(=O)OC(C)(C)C)CCN1c1ncnc2c1c(C(F)(F)F)cn2-c1cccc(Cl)c1 [Compound 494, tert-butyl (S)-4-(7-(3-chlorophenyl)-5-(trifluoromethyl)-7H-pyrrolo[2,3-d]pyrimidin-4-yl)-3-methylpiperazine-1-carboxylate] | – | – | – | < 0.1 | < 0.1 | 0.1 to 0.5
14 | C[C@H]1CN(C(=O)OC(C)(C)C)CCN1c1ncnc2c1c(C(F)(F)F)cn2-c1cc(F)cc(F)c1 [Compound 495] | – | – | – | < 0.1 | < 0.1 | 0.1 to 0.5
15 | C[C@@H]1CN(c2ncnc3c2c(C(F)(F)F)cn3-c2cccc(F)c2)[C@@H](C)CN1C(=O)OC(C)(C)C [Compound 496, tert-butyl (2R,5S)-4-(7-(3-fluorophenyl)-5-(trifluoromethyl)-7H-pyrrolo[2,3-d]pyrimidin-4-yl)-2,5-dimethylpiperazine-1-carboxylate] | – | – | – | < 0.1 | < 0.1 | 0.1 to 0.5
16 | C[C@@H]1CN(c2ncnc3c2c(N2CCC2)cn3-c2cc(F)cc(F)c2)[C@@H](C)CN1C(=O)OC(C)(C)C [Compound 497, tert-butyl (2R,5S)-4-(5-(azetidin-1-yl)-7-(3,5-difluorophenyl)-7H-pyrrolo[2,3-d]pyrimidin-4-yl)-2,5-dimethylpiperazine-1-carboxylate] | – | – | – | < 0.1 | < 0.1 | < 0.1
17 | C[C@H]1CN(C(=O)OC(C)(C)C)CCN1c1ncnc2c1c(N1CCC1)cn2-c1cc(F)cc(F)c1 [Compound 498, tert-butyl (S)-4-(5-(azetidin-1-yl)-7-(3,5-difluorophenyl)-7H-pyrrolo[2,3-d]pyrimidin-4-yl)-3-methylpiperazine-1-carboxylate] | – | – | – | < 0.1 | < 0.1 | < 0.1
18 | CCCN(C)c1cn(-c2cc(C#N)ccn2)c2ncnc(N3C[C@@H](C)N(C(=O)OC(C)(C)C)C[C@@H]3C)c12 [Compound 499, tert-butyl (2R,5S)-4-(7-(4-cyanopyridin-2-yl)-5-(methyl(propyl)amino)-7H-pyrrolo[2,3-d]pyrimidin-4-yl)-2,5-dimethylpiperazine-1-carboxylate] | – | – | – | < 0.1 | < 0.1 | 0.1 to 0.5
19 | C=CCOC(=O)N(CCC)c1cn(-c2cc(Cl)ccn2)c2ncnc(N3C[C@@H](C)N(C(=O)OC(C)(C)C)C[C@@H]3C)c12 [Compound 500, tert-butyl (2R,5S)-4-(5-(((allyloxy)carbonyl)(propyl)amino)-7-(4-chloropyridin-2-yl)-7H-pyrrolo[2,3-d]pyrimidin-4-yl)-2,5-dimethylpiperazine-1-carboxylate] | – | – | – | 0.1 to 0.5 | 0.1 to 0.5 | 0.5 to 2
20 | C[C@H]1CN(c2ncnc3c2c(C(F)(F)F)cn3-c2cc(C#N)ccn2)[C@@H](C)CN1C(=O)OC(C)(C)C [Compound 502, tert-butyl (25,5S)-4-(7-(4-cyanopyridin-2-yl)-5-(trifluoromethyl)-7H-pyrrolo[2,3-d]pyrimidin-4-yl)-2,5-dimethylpiperazine-1-carboxylate] | – | – | – | < 0.1 | < 0.1 | 0.1 to 0.5
